From patent US5872124A, “Treatment of diseases of the central nervous system using uric acid as a scavenger of peroxynitrite” (Thomas Jefferson University, priority 1996, dated 1999)

What was measured:
[1] = mice, within 4 hours [17]; cited from earlier work
[2] = test system: experimental allergic encephalomyelitis (EAE), immunization-elicited; assay: Clinical severity of immunization-elicited EAE in SJL mice; format: in vivo
Source text: (§1) Induction of EAE in rats by adoptive transfer of MBP-specific T cells or in SJL or SWXJ-14 mice by immunization with MBP or PLP 139-151, a peptide derived from […] [8], results in variable disease. We have scored the clinical systems of EAE as tabulated below.
(§2) Severity scores and symptoms of Experimental Allergic
(§3) 1 piloerection, tail weakness
(§4) 3 hind limb weakness/paralysis
(§5) 4 hind and forelimb paralysis
SJL mice are immunized subcutaneously with pMBP in adjuvant to induce EAE, from which they often recover. Commencing ten days post-immunization, groups of mice (n=6) were treated once daily with 2 mg of either PTIO or carboxy-PTIO intraperitoneally and observed for clinical signs of EAE which were graded as detailed in Table 1. […] At 18 days […], NO determinations were performed in several mice from each group.

[3] = test system: experimental allergic encephalomyelitis (EAE), PLP immunization; assay: Clinical severity of PLP-induced EAE in SWXJ-14 mice; format: in vivo; details: started 4-5 days after immunization with myelin antigens
Method: FIG. 2. Effect of daily administration of c-PTIO (carboxy-PTIO) on EAE in SWXJ-14 mice. EAE was induced in SWJX-14 mice by two subcutaneous immunizations (d.0 and d.7) of […] PLP in CFA over two injection sites. Mice (N=3) were treated beginning on day 5 post-immunization with 2 mg/mouse c-PTIO […] i.p. and was continued until day 16 post-immunization (day 0 being the day of first immunization). Mean severity scores were graded as detailed in Table 1.
FIG. 4. Effect of D609 on the development of EAE in SWXJ-14 mice. SWXJ-mice were immunized with PLP as detailed for FIG. 2. Mice (n=2) were treated i.p. with 1 mg/mouse D609 from day 5 through day 14 post-immunization. Mean severity scores were graded as detailed in Table 1.
FIG. 12. Effect of the administration of various doses of uric acid on EAE in SWXJ-14 mice. EAE was induced in SWXJ-14 mice by two subcutaneous immunizations (d.0 and 7) of […] PLP in CFA over two injection sites. Mice (n=5) were treated once daily, beginning on day 5 post-immunization, with the indicated doses of uric acid. Mean severity scores were graded as detailed in Table 1.
as §1, §2, §3, §4, §5
(§6) In FIG. 1, EAE was elicited in 11 week old female Lewis rats by the adoptive transfer of 20×10^6 cells of the MBP-specific line 5HGBP.G5 activated by stimulation with MBP and syngeneic APC 48 hours previously and NO levels measured 5 days after transfer. In SWXJ-14 mice, EAE was triggered by two subcutaneous immunizations (d.0 and 7) with 100 μg PLP in CFA over two injection sites, and NO levels measured 18 days later. Results expressed represent the mean values obtained from a minimum of 4 animals. Peak severity of the symptoms of EAE ranged from 2-3 for the rats and 4-5 for the mice. NO was semi-quantitated using spin trapping with DETC and EPR-spectroscopy as described previously.
Clinical symptoms manifest as an ascending paralysis approximately 13 days after immunization and the disease rapidly progresses to its fatal endpoint by day 16-20. […] NO levels in the brains and spinal cords of animals treated with a single daily dose of PTIO were semi-quantitated by spin trapping and EPR spectroscopy on day 17 after immunization, one day after treatment was terminated. […] We expect that the removal of NO by PTIO should not necessarily interfere with the induction of the response responsible for NO production and that as the supplied PTIO is used up NO levels should rapidly return to control values.
In contrast to SJL mice, SWX mice immunized with PLP undergo a progressive,often fatal form of EAE. Clinical symptoms manifest as an ascending paralysis approximately 13 days after immunization and the disease rapidly progresses to its fatal endpoint by days 16-20. […] We conclude that the amount of carboxy-PTIO we administered, especially considering the short in vivo half life of the compound, was only sufficient to delay the onset of the EAE in the SWXJ-14 mouse.
NO is not universally considered to be a molecule with significant in vivo toxicity and peroxynitrite is thought to be the more toxic molecule produced by activated inflammatory cells resulting from the interaction of NO and superoxide. We would henceforth expect that removal of NO would reduce peroxynitrite formation. To determine whether NO or peroxynitrite is more likely to be ultimately responsible for clinical disease in EAE we have performed a series of experiments using uric acid, a known scavenger of peroxynitrite, to treat EAE induced in SWXJ-14 mice by immunization with PLP.

[4] = test system: nitric oxide (NO); assay: NO level in spinal cord of Lewis rats with adoptive transfer EAE (spin trapping, EPR); format: in vivo
Method: as §6
Rats were injected i.v. with 20×10^6 MBP-specific CD4 T cells activated in vitro. Two days later the animals were treated with a single dose of either PTIO (20 mg) or a mixture of PTIO (20 mg), indomethacin (1 mg), and allopurinol (13 mg). Treatment was continued on a daily basis until day 4 and animals were sacrificed for NO measurement the following day.

Structure (SMILES): CC1(C)N([O])C(c2ccccc2)=[N+]([O-])C1(C)C [PTIO, 2-phenyl-4,4,5,5-tetramethylimidazoline-1-oxyl-3-oxide]
- Amount accounted for in excretions [1]: Approximately 75%
- Onset and severity of EAE (FIG. 7) ([2]; 2 mg once daily i.p. from day 10 post-immunization, n=6): delayed onset of disease and somewhat lessened severity by comparison with untreated animals
- Clinical symptoms of EAE ([2]; SJL mice, i.p. administration): forestall the appearance of clinical symptoms of EAE
- Clinical severity ([2]; SJL mouse - immunization EAE, severity score 1-5, Table 2): 0.8
- Effectiveness when treatment is started after immunization [3]: effective when started 4-5 days after immunization with myelin antigens
- NO-spinal cord ([4]; Rat-adoptive transfer EAE, Table 2): undetectable
- Levels of NO in spinal cord ([4]; rats, adoptive transfer EAE, i.p. administration): reduce levels of NO detected in spinal cord
